# Results as given in patent publication US20160009752A1, “[…]-OXIMINO-AMINOALKYLETHERS AND PROCESS FOR PREPARATION THEREOF, USEFUL AS ANTIDIABETIC AND […] AGENTS” (COUNCIL OF SCIENTIFIC & INDUSTRIAL RESEARCH, priority 2013, published 2016).
# Marks after values point to notes of the source that are not given here.
# Experiments:
# sucrose loaded rat = assay: Sucrose loaded rat model (SLM), oral tolerance test; assay type: in vivo; design: % Antihyperglycemic activity SLM: concentration or dose not given beside the values; settings: for % Antihyperglycemic activity SLM: Table 2, sucrose loaded rat
# Source text: On the day of experiment blood glucose of all the overnight fasted animals was checked by Glucostrips (Roche) using Glucometer (ACCU-CHEK II; Roche Diagnostics, USA). […] Animals were divided into groups consisting of five animals in each. […] The test compounds and standard drug was always prepared in the vehicle 1% gum acacia. […] Food (not water) was removed from the cages during the experimental period. […] Comparing the AUC of test sample or drug treated groups compared to control group determined the percent improvement in OGTT by test sample and standard drugs and termed as antihyperglycaemic activity. Statistical analysis between the groups was done by employing Students t test
# [1] = system: sucrose challenged low dosed STZ-induced diabetic rats; assay: Sucrose challenged low dosed streptozotocin-induced diabetic rats (STZ-S); assay type: in vivo, rat; settings: for % Antihyperglycemic activity STZ-S 0-5 hr / % Antihyperglycemic activity STZ-S 0-24 hr: Table 2
# Method: Fasting blood glucose level of each animal was measured after 48 hours post STZ injection by Glucostrips (Roche) using Glucometer (ACCU-CHEK II; Roche Diagnostics, USA) and animals showing blood glucose level above 280 mg/dl were considered as diabetic. The diabetic rats with fasting blood glucose values varying between […] were included in this study. Animals were divided into groups consisting of five animals in each. Group one was considered as a control group, where as the other groups were termed as experimental groups. […] The test samples and standard drug (Metformin) was always prepared in the vehicle 1% gum acacia. […] Food (not water) was removed from the cages during the experimental period. […] The percent decline in AUC of the experiment group compared to sham treated control group termed as % antihyperglycaemic activity. Statistical analysis between the groups was done by employing Students t test.
# [2] = system: high fructose high fat fed Syrian golden hamsters; assay: Antidyslipidemic activity in high fructose high fat fed Syrian golden hamsters; assay type: in vivo
# Method: Male Syrian golden hamsters weighing 100-120 g were divided into groups each containing six animals. Dyslipidemia was produced by feeding the animals with high fructose high fat diet (60% fructose, 13% fat) for 30 to 40 days. Dyslipidemic hamsters were divided into groups based on their Serum lipid profile. The dyslipidemic animals had free access to HFD and water throughout the experimental period. The fine suspension of 14b was fed orally at a dose of 30 mg/kg for 7 days to the animals. Control animals were given drug vehicle only, served as sham treated control. Body weight and diet intake of each animal group were recorded daily to check the effect of the test samples on food intake and body weight of the animals. At the end of the experiment period i.e. on day 8th, the blood of each animal was withdrawn from retro-orbital plexus. After keeping the tubes for 15 min. in cold, Serum was separated. Biochemical analysis of Serum was performed on the same day for triglycerides (TG), total cholesterol (TC) and HDL-cholesterol and LDL-cholesterol contents using Cobas Integra 400 plus analyzer kits. All statistical analysis will be performed with Graph Pad Prism Software. One way ANOVA, all pair wise multiple comparison procedure (Tukey test). Data will be reported as mean±SEM.
# [3] = system: STZ-induced diabetic rats; assay: Streptozotocin-induced diabetic rat model (STZ); assay type: in vivo; settings: 100 mg/kg
# Method: Male albino rats (Sprague Dawley Strain) of body weight 160±20 g were procured from the colony of CDRI Animal House. 4 to 5 animals were kept in one polypropylene cage and acclimatized for one week in the new environment. The animals were made diabetic by injecting streptozotocin (STZ) intraperitoneally to the overnight starved animals at a dose of 60 mg/kg prepared in 100 mM citrate buffer (pH 4.5). Fasting blood glucose level of each animal was measured after 48 hours post STZ injection by Glucostrips (Roche) using Glucometer (ACCU-CHEK II; Roche Diagnostics, USA) and animals showing blood glucose level above 280 mg/dl were considered as diabetic. The diabetic rats with fasting blood glucose values varying between 280-450 mg/dl were included in this study. Animals were divided into groups consisting of five animals in each. Group one was considered as a control group, where as the other groups were termed as experimental groups. Rats of experimental group were usually given 100 mg/kg body weight of the test samples unless stated otherwise and standard drug i.e. metformin, respectively. The test samples and standard drug i.e. metformin was always prepared in the vehicle 1% gum acacia. 30 min post administration of the test samples/vehicle/standard drug, blood glucose levels of the animals of all the groups were measured at 30, 60, 90, 120, 180, 240, 300 and 1440 min. Food (not water) was removed from the cages during the experimental period. A plot was drawn between time and blood glucose levels on x and y axis, respectively and the area under curve (AUC) between 0 to 300 min were calculated of each group. The percent decline in AUC of the experiment group compared to sham treated control group termed as % antihyperglycaemic activity. Statistical comparison between the groups was done by employing Student's ‘t’ test.
structure (smiles),measurement,setting,value
"CC(=NO)[C@H]1CC[C@H]2[C@@H]3CC=C4C[C@@H](O)CC[C@]4(C)[C@H]3CC[C@]12C [Compound 10., 3β-hydroxy-pregna-5-en-20-one-oxime]",% Antihyperglycemic activity SLM,sucrose loaded rat,13.9%
"C/C(=N\OCCN1CCCCC1)C1=CC[C@H]2[C@@H]3CC=C4C[C@@H](O)CC[C@]4(C)[C@H]3CC[C@]12C [Compound 11a, 3β-Hydroxy-pregna-5,16-dien-20-one-O-(2-piperidinyl-ethyl)-oxime]",melting point,,135 to 138 °C
same,% Antihyperglycemic activity SLM,sucrose loaded rat,27.15%
"C/C(=N\OCCN1CCCCCC1)C1=CC[C@H]2[C@@H]3CC=C4C[C@@H](O)CC[C@]4(C)[C@H]3CC[C@]12C [Compound 11b, 3β-Hydroxypregna-5,16-dien-20-one-O-(2-azepan-1-yl-ethyl)-oxime]",melting point,,127 to 130 °C
same,% Antihyperglycemic activity SLM,sucrose loaded rat,16.5%
"C/C(=N\OCCN1CCOCC1)C1=CC[C@H]2[C@@H]3CC=C4C[C@@H](O)CC[C@]4(C)[C@H]3CC[C@]12C [Compound 11c, 3β-Hydroxypregna-5,16-dien-20-one-O-(2-morpholin-4-yl-ethyl)-oxime]",% Antihyperglycemic activity SLM,sucrose loaded rat,10.2%
"CCN(CC)CCO/N=C(\C)C1=CC[C@H]2[C@@H]3CC=C4C[C@@H](O)CC[C@]4(C)[C@H]3CC[C@]12C [Compound 11d, 3β-Hydroxypregna-5,16-dien-20-one-O-(2-diethylamino-ethyl)-oxime]",melting point,,156 to 160 °C
same,% Antihyperglycemic activity SLM,sucrose loaded rat,13.1%
"C/C(=N\OCCN1CCCC1)[C@H]1CC[C@H]2[C@@H]3CC=C4C[C@@H](O)CC[C@]4(C)[C@H]3CC[C@]12C [Compound 14a, 3β-Hydroxy-pregna-5-en-20-one-O-(2-pyrrolidin-1-yl-ethyl)-oxime]",melting point,,140 to 142 °C
same,% Antihyperglycemic activity SLM,sucrose loaded rat,42.4%
same,"anti-diabetic activity, in words",sucrose loaded rat; all the models including db/+ mice models,better anti-diabetic activity
same,% Antihyperglycemic activity STZ-S 0-5 hr,[1],9.96%
same,% Antihyperglycemic activity STZ-S 0-24 hr,[1],3.07%
"C/C(=N\OCC(O)CNC(C)(C)C)[C@H]1CC[C@H]2[C@@H]3CC=C4C[C@@H](O)CC[C@]4(C)[C@H]3CC[C@]12C (stereo partly drawn) [Compound 16a, 3β-Hydroxy-pregna-5-en-20-one-O-[2-hydroxy-3-tert.-butylamino-propyl]-oxime]",melting point,,> 200 °C
same,% Antihyperglycemic activity SLM,sucrose loaded rat,37.7%
"C/C(=N\OCC(O)CNC(C)C)C1CCC2C3CC=C4CC(O)CCC4(C)C3CCC12C (stereo not drawn) [Compound 16b, 3β-Hydroxy-pregna-5-en-20-one-O-[2-hydroxy-3-iso-propylamino-Propyl)-oxime]",% Antihyperglycemic activity SLM,sucrose loaded rat,13.6%
"C/C(=N/OCC(O)CN1CCN(c2ccccc2)CC1)[C@H]1CC[C@H]2[C@@H]3CC=C4C[C@@H](O)CC[C@]4(C)[C@H]3CC[C@]12C (stereo partly drawn) [Compound 16c, 3β-Hydroxy-pregna-5-en-20-one-O-[2-hydroxy-3-(4-phenyl-piperazin-1-yl)-propyl]-oxime]",% Antihyperglycemic activity SLM,sucrose loaded rat,17.8%
"COc1ccccc1N1CCN(CC(O)CO/N=C(/C)C2CCC3C4CC=C5CC(O)CCC5(C)C4CCC23C)CC1 (stereo not drawn) [Compound 16d, 3β-Hydroxy-pregna-5-en-20-one-O-{2-hydroxy-3-[4-(2-methoxyphenyl)-Piperzin-1-yl]-propyl}-oxime]",melting point,,145 to 149 °C
same,% Antihyperglycemic activity SLM,sucrose loaded rat,13.9%
"CC(C)OC(=O)C(C)(C)Oc1ccc(C(=O)c2ccc(Cl)cc2)cc1 [Fenofibrate, reference compound]",enhancement of lipoprotein lipase,[2]; 30 mg/kg oral,21.1%
same,enhancement of serum HDL-cholesterol,[2]; 30 mg/kg oral,9.8%
same,lowering of LDL-cholesterol (LDL-C) level,[2]; 30 mg/kg oral,30.1%
same,lowering of serum glycerol level,[2]; 30 mg/kg oral,22.4%
same,lowering of serum triglycerides level (TG),[2]; 30 mg/kg oral,28.9%
same,"Glycerol, change vs HFD control (in parentheses)","[2]; 30 mg/kg p.o., 7 days",(−22.4)* %
same,"HDL-C, change vs HFD control (in parentheses)","[2]; 30 mg/kg p.o., 7 days",(+9.80) %
same,"LDL-C, change vs HFD control (in parentheses)","[2]; 30 mg/kg p.o., 7 days",(−30.1)** %
same,"Lipoprotein lipase, change vs HFD control (in parentheses)","[2]; 30 mg/kg p.o., 7 days",(+21.1)* %
same,"TG, change vs HFD control (in parentheses)","[2]; 30 mg/kg p.o., 7 days",(−28.9)* %
same,Chol,"[2]; 30 mg/kg p.o., 7 days, serum",277.8 ± 22.3 mg/dL
same,HDL-C,"[2]; 30 mg/kg p.o., 7 days, serum",156.8 ± 12.8 mg/dL
same,Lipoprotein lipase,"[2]; 30 mg/kg p.o., 7 days, serum",36.8 ± 3.60 U/L
same,NEFA,"[2]; 30 mg/kg p.o., 7 days, serum",5.40 ± 0.30 mmol/L
same,TG,"[2]; 30 mg/kg p.o., 7 days, serum",529.8 ± 30.7 mg/dL
"CN(C)C(=N)N=C(N)N [Metformin, reference compound]","Blood glucose profile, 0 min post glucose load",sucrose loaded rat; 100 mg/kg,94.8 ± 2.1 mg/dL
same,"Blood glucose profile, 30 min post glucose load",sucrose loaded rat; 100 mg/kg,111.4 ± 7.8 mg/dL
same,"Blood glucose profile, 60 min post glucose load",sucrose loaded rat; 100 mg/kg,105.8 ± 2.1 mg/dL
same,"Blood glucose profile, 90 min post glucose load",sucrose loaded rat; 100 mg/kg,94.0 ± 2.0 mg/dL
same,"Blood glucose profile, 120 min post glucose load",sucrose loaded rat; 100 mg/kg,84.2 ± 1.3 mg/dL
same,% Antihyperglycaemic activity (improvement in OGTT post sucrose load),"sucrose loaded rat; 100 mg/kg, AUC 0-120 min vs control, normal rats",24.4*** %
same,% Antihyperglycemic activity SLM,sucrose loaded rat,21.1%
same,"Blood glucose level, 0 min post sucrose load",[3],358.4 ± 14.5 mg/dL
same,"Blood glucose level, 30 min post sucrose load",[3],450.0 ± 21.8 mg/dL
same,"Blood glucose level, 60 min post sucrose load",[3],419.0 ± 10.5 mg/dL
same,"Blood glucose level, 90 min post sucrose load",[3],399.0 ± 7.7 mg/dL
same,"Blood glucose level, 120 min post sucrose load",[3],351.0 ± 16.0 mg/dL
same,"Blood glucose level, 180 min post sucrose load",[3],349.6 ± 10.1 mg/dL
same,"Blood glucose level, 240 min post sucrose load",[3],337.0 ± 7.7 mg/dL
same,"Blood glucose level, 300 min post sucrose load",[3],299.8 ± 5.0 mg/dL
same,"Blood glucose level, 1440 min post sucrose load",[3],445.6 ± 13.9 mg/dL
same,% Antihyperglycemic activity 0-300 min,[1]; 100 mg/kg,23.7%**
same,% Antihyperglycemic activity 0-1440 min,[1]; 100 mg/kg,23.1%**
same,"Blood glucose level, 0 min post sucrose load",[1]; 100 mg/kg,222.2 ± 19.9 mg/dL
same,"Blood glucose level, 30 min post sucrose load",[1]; 100 mg/kg,457.4 ± 17.2 mg/dL
same,"Blood glucose level, 60 min post sucrose load",[1]; 100 mg/kg,524.2 ± 18.9 mg/dL
same,"Blood glucose level, 90 min post sucrose load",[1]; 100 mg/kg,468.2 ± 11.3 mg/dL
same,"Blood glucose level, 120 min post sucrose load",[1]; 100 mg/kg,416.0 ± 12.2 mg/dL
same,"Blood glucose level, 180 min post sucrose load",[1]; 100 mg/kg,373.6 ± 11.4 mg/dL
same,"Blood glucose level, 240 min post sucrose load",[1]; 100 mg/kg,345.0 ± 10.6 mg/dL
same,"Blood glucose level, 300 min post sucrose load",[1]; 100 mg/kg,310.8 ± 2.6 mg/dL
same,"Blood glucose level, 1440 min post sucrose load",[1]; 100 mg/kg,392.8 ± 9.9 mg/dL
same,% Antihyperglycemic activity 0-300 min,"[1]; 100 mg/kg, listed as metformin",23.7%
same,% Antihyperglycemic activity 0-1440 min,"[1]; 100 mg/kg, listed as metformin",23.1%
same,% Antihyperglycemic activity STZ-S 0-5 hr,[1],25.8%
same,% Antihyperglycemic activity STZ-S 0-24 hr,[1],33.2%
